Species: Rattus norvegicus
Test: Open TG-GATES - Regimen: Single
Format: toxicity, organism-based, Sprague-Dawley
Parameters: regimen Single, gender Male, age 6 weeks
Settings: in vivo, po, 20 mg/kg, route gavage, dose level Middle; for APTT / Bas / Eos / Fbg / Hb / Ht / Lym / MCH / MCHC / MCV / Mono / Neu / PT / Plat / RBC / Ret / WBC: tissue Blood; for KIDNEY_L / KIDNEY_R / KIDNEY_TOTAL: tissue Kidney; for LIVER: tissue Liver; for A/G / ALP / ALT / AST / BUN / CRE / Ca / Cl / DBIL / GLC / IP / K / LDH / Na / PL / RALB / TBIL / TC / TG / TP / gamma-GTP: tissue Plasma

## CC(C)NNC(=O)c1ccncc1 [IPRONIAZID]
3 h
  TERMINAL_BW: 203.6 g
  APTT: 21.7 s
  Bas: 0%
  Eos: 1%
  Fbg: 321.4 mg/dL
  Hb: 12.8 g/dL
  Ht: 37.7%
  Lym: 78.8%
  MCH: 21.6 pg
  MCHC: 34.1%
  MCV: 63.4 fL
  Mono: 2%
  Neu: 17.8%
  PT: 16.3 s
  Plat: 114.7 x10_4/uL
  RBC: 594.6 x10_4/ul
  Ret: 8.2%
  WBC: 62.7 x10_2/uL
  KIDNEY_L: 1 g
  KIDNEY_R: 1 g
  KIDNEY_TOTAL: 1.9 g
  LIVER: 9.6 g
  A/G: 1.3
  ALP: 1741.8 IU/L
  ALT: 35.4 IU/L
  AST: 73.2 IU/L
  BUN: 12.4 mg/dL
  CRE: 0.2 mg/dL
  Ca: 10.7 mg/dL
  Cl: 107.2 meq/L
  DBIL: 0.006 mg/dL
  GLC: 182.8 mg/dL
  IP: 8.8 mg/dL
  K: 4 meq/L
  LDH: 229.4 IU/L
  Na: 142 meq/L
  PL: 143.6 mg/dL
  RALB: 3.2 g/dL
  TBIL: 0.01 mg/dL
  TC: 78.8 mg/dL
  TG: 58.8 mg/dL
  TP: 5.7 g/dL
  gamma-GTP: 1.2 IU/L
6 h
  TERMINAL_BW: 213.3 g
  APTT: 23.3 s
  Bas: 0%
  Eos: 0.6%
  Fbg: 324.6 mg/dL
  Hb: 13.2 g/dL
  Ht: 38.9%
  Lym: 72.6%
  MCH: 21.5 pg
  MCHC: 34.1%
  MCV: 63.1 fL
  Mono: 2.6%
  Neu: 23.6%
  PT: 15.6 s
  Plat: 118.4 x10_4/uL
  RBC: 615.8 x10_4/ul
  Ret: 8%
  WBC: 79 x10_2/uL
  KIDNEY_L: 1 g
  KIDNEY_R: 1 g
  KIDNEY_TOTAL: 1.9 g
  LIVER: 9.4 g
  A/G: 1.2
  ALP: 1382.2 IU/L
  ALT: 34.4 IU/L
  AST: 72.8 IU/L
  BUN: 10.4 mg/dL
  CRE: 0.1 mg/dL
  Ca: 10.6 mg/dL
  Cl: 107 meq/L
  DBIL: 0.002 mg/dL
  GLC: 178.8 mg/dL
  IP: 10.3 mg/dL
  K: 4.3 meq/L
  LDH: 212.6 IU/L
  Na: 142 meq/L
  PL: 154.6 mg/dL
  RALB: 2.9 g/dL
  TBIL: 0.008 mg/dL
  TC: 86.4 mg/dL
  TG: 68.2 mg/dL
  TP: 5.4 g/dL
  gamma-GTP: 1.2 IU/L
9 h
  TERMINAL_BW: 207.6 g
  APTT: 22.8 s
  Bas: 0%
  Eos: 1%
  Fbg: 306.4 mg/dL
  Hb: 13.1 g/dL
  Ht: 37.8%
  Lym: 76.4%
  MCH: 21.4 pg
  MCHC: 34.6%
  MCV: 61.8 fL
  Mono: 2.6%
  Neu: 19.4%
  PT: 15.5 s
  Plat: 116.3 x10_4/uL
  RBC: 612.4 x10_4/ul
  Ret: 7.7%
  WBC: 87.5 x10_2/uL
  KIDNEY_L: 1 g
  KIDNEY_R: 1 g
  KIDNEY_TOTAL: 2 g
  LIVER: 8.6 g
  A/G: 1.3
  ALP: 1268.2 IU/L
  ALT: 35 IU/L
  AST: 70.2 IU/L
  BUN: 8.4 mg/dL
  CRE: 0.2 mg/dL
  Ca: 10.6 mg/dL
  Cl: 106.6 meq/L
  DBIL: 0.01 mg/dL
  GLC: 176.2 mg/dL
  IP: 10.2 mg/dL
  K: 4.2 meq/L
  LDH: 171 IU/L
  Na: 141.4 meq/L
  PL: 130.4 mg/dL
  RALB: 3 g/dL
  TBIL: 0.02 mg/dL
  TC: 79.2 mg/dL
  TG: 35.8 mg/dL
  TP: 5.4 g/dL
  gamma-GTP: 1 IU/L
24 h
  TERMINAL_BW: 213.8 g
  APTT: 21.6 s
  Bas: 0%
  Eos: 0.6%
  Fbg: 318.8 mg/dL
  Hb: 12.9 g/dL
  Ht: 37.7%
  Lym: 76.8%
  MCH: 20.9 pg
  MCHC: 34.2%
  MCV: 60.9 fL
  Mono: 2%
  Neu: 19.6%
  PT: 15.9 s
  Plat: 125.4 x10_4/uL
  RBC: 618.2 x10_4/ul
  Ret: 7.7%
  WBC: 81.3 x10_2/uL
  KIDNEY_L: 1 g
  KIDNEY_R: 1 g
  KIDNEY_TOTAL: 1.9 g
  LIVER: 10.1 g
  A/G: 1.2
  ALP: 1498.8 IU/L
  ALT: 38.2 IU/L
  AST: 73 IU/L
  BUN: 17.8 mg/dL
  CRE: 0.2 mg/dL
  Ca: 10.9 mg/dL
  Cl: 105.4 meq/L
  DBIL: 0.006 mg/dL
  GLC: 177.6 mg/dL
  IP: 8 mg/dL
  K: 4.5 meq/L
  LDH: 275.4 IU/L
  Na: 141.6 meq/L
  PL: 134.8 mg/dL
  RALB: 3 g/dL
  TBIL: 0.006 mg/dL
  TC: 73 mg/dL
  TG: 85.6 mg/dL
  TP: 5.5 g/dL
  gamma-GTP: 1.6 IU/L
